Where “and” joins values, the source holds several entries; their conditions need not be identical. Equal entries are not always repeated. Where two headings read alike, the source gives them in different places.
Columns and labels:
[1] = molecular target: op-delta (Homo sapiens, UniProt P41143); experiment: cell-based
[2] = molecular target: T1, CCKa (Homo sapiens, UniProt P32238); experiment: cell-based
T1 sequence (P32238 1-428): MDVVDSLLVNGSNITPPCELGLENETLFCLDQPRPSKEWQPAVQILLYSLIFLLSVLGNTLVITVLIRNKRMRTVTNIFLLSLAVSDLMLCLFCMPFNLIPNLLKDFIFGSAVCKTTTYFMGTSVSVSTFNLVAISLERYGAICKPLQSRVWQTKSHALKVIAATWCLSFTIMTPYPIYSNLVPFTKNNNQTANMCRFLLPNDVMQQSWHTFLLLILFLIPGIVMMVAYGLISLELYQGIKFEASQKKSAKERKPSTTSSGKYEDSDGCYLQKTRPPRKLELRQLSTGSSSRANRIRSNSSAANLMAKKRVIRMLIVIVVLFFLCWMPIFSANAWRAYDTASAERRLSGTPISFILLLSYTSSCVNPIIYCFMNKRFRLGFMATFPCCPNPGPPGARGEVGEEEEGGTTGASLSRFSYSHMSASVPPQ

[3] = molecular target: 5HT1A (Homo sapiens, UniProt P08908); experiment: cell-based
Sequence of 5HT1A (P08908 whole entry): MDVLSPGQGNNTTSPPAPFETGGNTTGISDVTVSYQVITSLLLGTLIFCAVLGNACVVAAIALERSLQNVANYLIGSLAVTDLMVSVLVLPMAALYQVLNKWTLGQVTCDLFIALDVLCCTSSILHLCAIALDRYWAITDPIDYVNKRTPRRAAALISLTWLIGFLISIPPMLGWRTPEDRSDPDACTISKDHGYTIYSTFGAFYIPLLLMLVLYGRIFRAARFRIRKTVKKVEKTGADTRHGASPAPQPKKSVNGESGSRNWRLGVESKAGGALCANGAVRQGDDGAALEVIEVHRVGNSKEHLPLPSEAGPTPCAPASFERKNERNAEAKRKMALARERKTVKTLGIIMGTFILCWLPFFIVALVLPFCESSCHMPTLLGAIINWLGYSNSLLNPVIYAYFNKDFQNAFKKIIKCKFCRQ

[4] = test system: 22 GPCR targets; format: cell-based, human; conditions: read-out: EC50 (agonistic activity)
[5] = molecular target: T2, D1 (Homo sapiens, UniProt P21728); experiment: cell-based
T2 sequence (P21728 whole entry): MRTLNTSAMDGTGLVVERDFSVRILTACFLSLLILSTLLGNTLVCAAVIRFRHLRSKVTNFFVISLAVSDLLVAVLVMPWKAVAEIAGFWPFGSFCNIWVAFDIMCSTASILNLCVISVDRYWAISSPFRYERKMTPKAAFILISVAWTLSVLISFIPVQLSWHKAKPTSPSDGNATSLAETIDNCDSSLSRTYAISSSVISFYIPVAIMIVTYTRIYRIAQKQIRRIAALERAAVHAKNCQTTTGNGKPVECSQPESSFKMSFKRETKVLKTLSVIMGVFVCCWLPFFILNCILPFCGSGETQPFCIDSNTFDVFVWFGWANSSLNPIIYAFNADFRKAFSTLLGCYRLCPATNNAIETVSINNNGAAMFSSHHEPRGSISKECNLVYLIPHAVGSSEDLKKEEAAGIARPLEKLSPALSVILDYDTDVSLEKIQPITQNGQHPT

[6] = test system: EV71 Shenzhen/120F1/09; experiment: microbe, parasite or virus in culture; format: cell-based, human enterovirus 71; conditions: Enterovirus A, EV71, RD, read-out: EC50 for Virus
[7] = molecular target: M1 (Homo sapiens, UniProt P11229); experiment: cell-based
Sequence of M1 (P11229 whole entry): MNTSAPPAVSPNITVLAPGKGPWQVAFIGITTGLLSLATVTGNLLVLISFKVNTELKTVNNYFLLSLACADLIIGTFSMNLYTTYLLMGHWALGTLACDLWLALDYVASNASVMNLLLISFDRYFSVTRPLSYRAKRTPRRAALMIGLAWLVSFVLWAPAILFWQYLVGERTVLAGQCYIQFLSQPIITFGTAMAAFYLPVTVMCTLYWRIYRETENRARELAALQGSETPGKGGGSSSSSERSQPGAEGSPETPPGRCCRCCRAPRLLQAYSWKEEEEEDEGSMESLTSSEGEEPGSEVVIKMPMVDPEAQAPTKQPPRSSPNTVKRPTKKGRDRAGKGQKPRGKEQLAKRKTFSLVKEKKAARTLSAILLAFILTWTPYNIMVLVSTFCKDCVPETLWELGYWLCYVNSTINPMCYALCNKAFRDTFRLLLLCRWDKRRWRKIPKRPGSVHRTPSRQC

[8] = molecular target: MINK (Homo sapiens, UniProt Q8N4C8); experiment: biochemical
[9] = molecular target: LCK (Homo sapiens, UniProt P06239); experiment: biochemical
[10] = test system: A/PR/8/34 (H1N1); design: species or system BALB/c mice; conditions: mouse, in vivo
[11] = test system: Influenza virus A/Hong Kong/8/68 (H3N2); experiment: microbe, parasite or virus in culture; format: cell-based; conditions: unidentified influenza virus, H3N2, MDCK, read-out: EC50 (mean ± SD)
[12] = molecular target: JAK2 (Homo sapiens, UniProt O60674); experiment: biochemical
[13] = molecular target: hERG potassium channel (Homo sapiens, UniProt Q12809); experiment: cell-based
[14] = molecular target: p38 alpha (Homo sapiens, UniProt Q16539); experiment: biochemical
[15] = molecular target: MST4 (Homo sapiens, UniProt Q9P289); experiment: biochemical
[16] = molecular target: T2, D1; experiment: cell-based; remark: listed apart in the source
[17] = molecular target: Beta1 (Homo sapiens, UniProt P08588); experiment: cell-based
[18] = test system: Influenza virus A/California/07/2009 (H1N1)pdm09; experiment: microbe, parasite or virus in culture; format: cell-based; conditions: H1N1, MDCK, read-out: EC50 (mean ± SD)
[19] = molecular target: H1 (Homo sapiens, UniProt P35367); experiment: cell-based
Sequence of H1 (P35367 whole entry): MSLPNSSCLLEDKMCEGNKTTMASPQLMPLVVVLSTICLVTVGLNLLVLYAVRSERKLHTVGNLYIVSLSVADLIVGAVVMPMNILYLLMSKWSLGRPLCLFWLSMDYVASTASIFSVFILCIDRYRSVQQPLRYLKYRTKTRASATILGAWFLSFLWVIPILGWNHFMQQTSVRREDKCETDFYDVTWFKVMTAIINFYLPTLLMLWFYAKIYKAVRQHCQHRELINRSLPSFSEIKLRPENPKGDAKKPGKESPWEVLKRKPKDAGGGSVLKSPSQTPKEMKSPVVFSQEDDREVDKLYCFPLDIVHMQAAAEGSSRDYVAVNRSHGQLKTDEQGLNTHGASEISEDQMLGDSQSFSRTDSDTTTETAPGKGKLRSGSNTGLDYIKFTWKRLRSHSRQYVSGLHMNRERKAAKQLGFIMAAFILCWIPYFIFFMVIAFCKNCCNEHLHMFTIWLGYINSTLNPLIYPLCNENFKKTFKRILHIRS

[20] = test system: A/Qingyuan/GIRD01/2017 (H7N9); experiment: microbe, parasite or virus in culture; format: cell-based, avian influenza virus; conditions: Influenza A virus, H7N9, MDCK, read-out: IC50 (mean ± SD)
[21] = test system: HSV-1 GHSV-UL46; experiment: microbe, parasite or virus in culture; format: cell-based, herpes simplex virus type 1; conditions: Human alphaherpesvirus 1, Vero C1008, read-out: EC50 for Virus
[22] = in vitro; conditions: human
[23] = molecular target: T3, Alpha1a (Homo sapiens, UniProt P35348); experiment: cell-based
T3 sequence (P35348 whole entry): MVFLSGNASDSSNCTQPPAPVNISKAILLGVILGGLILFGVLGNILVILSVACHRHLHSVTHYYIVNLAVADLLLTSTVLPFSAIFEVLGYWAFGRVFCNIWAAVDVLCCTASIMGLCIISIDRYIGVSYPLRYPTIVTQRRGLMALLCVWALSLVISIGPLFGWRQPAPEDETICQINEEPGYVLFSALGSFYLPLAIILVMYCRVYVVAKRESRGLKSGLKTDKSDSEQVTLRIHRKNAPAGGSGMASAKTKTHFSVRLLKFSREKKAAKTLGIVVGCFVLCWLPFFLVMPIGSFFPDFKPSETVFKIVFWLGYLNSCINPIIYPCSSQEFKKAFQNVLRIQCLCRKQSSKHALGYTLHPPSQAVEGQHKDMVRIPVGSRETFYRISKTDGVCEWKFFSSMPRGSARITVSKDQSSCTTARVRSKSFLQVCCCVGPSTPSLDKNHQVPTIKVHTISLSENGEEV

[24] = molecular target: op-kappa (Homo sapiens, UniProt P41145); experiment: cell-based
Sequence of op-kappa (P41145 whole entry): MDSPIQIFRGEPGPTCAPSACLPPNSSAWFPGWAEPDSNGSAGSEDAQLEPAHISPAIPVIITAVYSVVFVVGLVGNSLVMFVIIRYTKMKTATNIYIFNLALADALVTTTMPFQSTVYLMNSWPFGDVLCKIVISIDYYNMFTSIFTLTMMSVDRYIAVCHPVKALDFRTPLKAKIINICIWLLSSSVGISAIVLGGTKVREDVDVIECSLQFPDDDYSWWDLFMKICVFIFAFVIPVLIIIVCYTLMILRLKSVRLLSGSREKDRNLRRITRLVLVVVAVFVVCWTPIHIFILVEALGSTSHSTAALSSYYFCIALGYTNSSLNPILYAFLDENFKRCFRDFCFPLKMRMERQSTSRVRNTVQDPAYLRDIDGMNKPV

[25] = test system: HCV replicon 1b; experiment: microbe, parasite or virus in culture; format: cell-based; conditions: Hepatitis C virus, read-out: EC50 for Virus
[26] = test system: influenza A virus WSN/33 (H1N1); design: species or system BALB/c mice; conditions: mouse, in vivo
[27] = molecular target: H2 (Homo sapiens, UniProt P25021); experiment: cell-based
Sequence of H2 (P25021 whole entry): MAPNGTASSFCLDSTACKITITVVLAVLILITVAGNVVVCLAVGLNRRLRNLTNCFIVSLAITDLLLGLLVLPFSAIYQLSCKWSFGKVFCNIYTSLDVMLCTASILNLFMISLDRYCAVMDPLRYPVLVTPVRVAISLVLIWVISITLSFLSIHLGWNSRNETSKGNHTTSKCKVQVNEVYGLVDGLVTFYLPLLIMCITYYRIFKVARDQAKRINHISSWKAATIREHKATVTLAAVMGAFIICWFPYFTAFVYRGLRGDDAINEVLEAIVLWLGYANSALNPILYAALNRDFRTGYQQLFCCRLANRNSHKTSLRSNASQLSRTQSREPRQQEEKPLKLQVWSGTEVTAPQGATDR

[28] = molecular target: ABL1 (Homo sapiens, UniProt P00519); experiment: biochemical
[29] = molecular target: Beta2 (Homo sapiens, UniProt P07550); experiment: cell-based
[30] = molecular target: T3, Alpha1a; experiment: cell-based; remark: listed apart in the source
[31] = molecular target: Eta (Homo sapiens, UniProt P25101); experiment: cell-based
Sequence of Eta (P25101 21-427): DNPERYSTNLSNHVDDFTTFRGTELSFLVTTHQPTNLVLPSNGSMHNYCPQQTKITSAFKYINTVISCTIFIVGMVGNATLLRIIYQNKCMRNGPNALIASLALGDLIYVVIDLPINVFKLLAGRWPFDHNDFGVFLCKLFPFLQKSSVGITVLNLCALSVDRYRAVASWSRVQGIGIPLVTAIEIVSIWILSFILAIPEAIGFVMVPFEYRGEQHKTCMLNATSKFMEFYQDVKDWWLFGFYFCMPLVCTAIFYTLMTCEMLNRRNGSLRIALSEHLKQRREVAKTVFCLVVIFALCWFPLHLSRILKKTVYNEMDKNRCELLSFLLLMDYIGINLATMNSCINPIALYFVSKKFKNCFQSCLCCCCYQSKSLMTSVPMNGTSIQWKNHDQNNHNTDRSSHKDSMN

[32] = molecular target: V1a (Homo sapiens, UniProt P37288); experiment: cell-based
Sequence of V1a (P37288 whole entry): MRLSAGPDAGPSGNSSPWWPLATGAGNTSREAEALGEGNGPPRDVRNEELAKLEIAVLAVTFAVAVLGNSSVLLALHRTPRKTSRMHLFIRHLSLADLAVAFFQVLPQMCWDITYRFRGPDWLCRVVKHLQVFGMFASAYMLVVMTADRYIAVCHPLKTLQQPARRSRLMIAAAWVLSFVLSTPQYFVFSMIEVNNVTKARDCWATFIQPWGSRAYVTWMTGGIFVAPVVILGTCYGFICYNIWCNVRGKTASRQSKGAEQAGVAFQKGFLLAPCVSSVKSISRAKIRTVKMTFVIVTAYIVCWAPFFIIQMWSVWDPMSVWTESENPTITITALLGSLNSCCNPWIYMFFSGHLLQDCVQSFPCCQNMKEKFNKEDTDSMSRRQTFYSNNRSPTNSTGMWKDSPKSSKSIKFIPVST

[33] = molecular target: 5HT2A (Homo sapiens, UniProt P28223); experiment: cell-based
Sequence of 5HT2A (P28223 whole entry): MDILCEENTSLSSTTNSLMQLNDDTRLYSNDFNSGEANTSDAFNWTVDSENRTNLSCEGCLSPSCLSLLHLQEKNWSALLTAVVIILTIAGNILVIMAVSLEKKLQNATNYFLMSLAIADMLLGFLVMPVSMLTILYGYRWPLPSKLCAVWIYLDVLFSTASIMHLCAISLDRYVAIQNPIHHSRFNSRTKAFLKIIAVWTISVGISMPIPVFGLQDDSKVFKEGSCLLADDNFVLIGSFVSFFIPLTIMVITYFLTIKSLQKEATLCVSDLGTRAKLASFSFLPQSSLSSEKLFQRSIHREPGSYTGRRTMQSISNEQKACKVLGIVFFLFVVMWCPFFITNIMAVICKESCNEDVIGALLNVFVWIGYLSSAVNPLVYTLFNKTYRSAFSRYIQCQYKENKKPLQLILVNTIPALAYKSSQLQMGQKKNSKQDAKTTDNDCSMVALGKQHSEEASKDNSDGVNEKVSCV

[34] = 10,000 nM, read-out: Inhibition at Maximum Concentration (%)

Sequence of op-delta (P41143 whole entry): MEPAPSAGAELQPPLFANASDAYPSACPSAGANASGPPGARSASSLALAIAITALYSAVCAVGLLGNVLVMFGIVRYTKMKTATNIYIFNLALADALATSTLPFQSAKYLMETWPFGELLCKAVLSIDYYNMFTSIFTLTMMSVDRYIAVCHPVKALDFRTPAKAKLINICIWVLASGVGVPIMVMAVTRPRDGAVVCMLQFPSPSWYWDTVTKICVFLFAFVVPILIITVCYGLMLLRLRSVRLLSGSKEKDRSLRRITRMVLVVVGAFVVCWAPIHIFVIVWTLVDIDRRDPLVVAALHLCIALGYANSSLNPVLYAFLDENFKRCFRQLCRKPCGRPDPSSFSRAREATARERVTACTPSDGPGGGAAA

SMILES: O=C(O)[C@H]1C2CCC(CC2)[C@@H]1Nc1nc(-c2n[nH]c3ncc(F)cc23)nc(C2CC2)c1F [ZSP1273]
- EC50 [1]: > 12 µM
- Activity at Maximum Concentration (%) ([1]; 12,000 nM): −10.64%
- EC50 [2]: > 12 µM
- Activity at Maximum Concentration (%) ([2]; 12,000 nM): −4.4%
- EC50 [3]: > 12 µM
- Activity at Maximum Concentration (%) ([3]; 12,000 nM): 16.98%
- EC50 [4]: > 12 µM
- IC50 [5]: > 10 µM
- inhibition at 10 µM [5, 34]: -16.7%
- EC50 [6]: > 10 µM
- EC50 [7]: > 12 µM
- Activity at Maximum Concentration (%) ([7]; 12,000 nM): −3.22%
- IC50 [8]: > 10 µM
- IC50 [9]: > 10 µM
- mortality [10]: 40%
- EC50 [11]: 0.019 ± 0.01 nM
- IC50 [12]: > 10 µM
- IC50 [13]: > 40 µM
- IC50 [14]: > 10 µM
- IC50 [15]: > 10 µM
- EC50 [16]: > 12 µM
- Activity at Maximum Concentration (%) ([16]; 12,000 nM): −2.15%
- EC50 [17]: > 12 µM
- Activity at Maximum Concentration (%) ([17]; 12,000 nM): 0.54%
- EC50 [18]: 0.02 ± 0.003 nM
- IC50 [19]: > 10 µM
- inhibition at 10 µM [19, 34]: 13.4%
- IC50 [20]: 0.000777 ± 0.000427 µM
- EC50 [21]: > 10 µM
- CC50 [22]: > 10 µM
- IC50 [23]: > 10 µM
- inhibition at 10 µM [23, 34]: -56.5%
- EC50 [24]: > 12 µM
- Activity at Maximum Concentration (%) ([24]; 12,000 nM): −18.96%
- EC50 [25]: > 10 µM
- day on which mice began to regain body weight [26]: 4 days and 5 days
- decrease of viral load in lung tissues vs vehicle ([26]; 3 mg/kg): 2.37 log10
- decrease of viral load in lung tissues vs vehicle ([26]; 10 mg/kg): 3.1 log10 and 4.18 log10
- decrease of viral load in lung tissues vs vehicle ([26]; 30 mg/kg): 4.97 log10
- viral titer in lung tissues ([26]; 30 mg/kg): < 2.0 log10
- EC50 [27]: > 12 µM
- Activity at Maximum Concentration (%) ([27]; 12,000 nM): −3.46%
- IC50 [28]: > 10 µM
- EC50 [29]: > 12 µM
- Activity at Maximum Concentration (%) ([29]; 12,000 nM): 1.43%
- EC50 [30]: > 12 µM
- Activity at Maximum Concentration (%) ([30]; 12,000 nM): −2.93%
- EC50 [31]: > 12 µM
- Activity at Maximum Concentration (%) ([31]; 12,000 nM): −1.16%
- IC50 [32]: > 10 µM
- inhibition at 10 µM [32, 34]: 7.24%
- IC50 [33]: > 10 µM
- inhibition at 10 µM [33, 34]: 2.56%
